Laboratory results from patent US7883730B2, “Rumen protected lysine” (Zinpro Corporation, priority 2007, dated 2011).

Test system: Lactating Holstein Dairy Cows
Assay: Feeding evaluation: lactation responses to N-Benzylidene-L-Lysine
Assay type: in vivo
Text: Evaluation of Feeding N-Benzylidene-L-Lysine Using Lactating Holstein Dairy Cows
All cows received the same base diet. Cows were assigned to one of two treatments: (1) control, (2) control+N-Benzylidene-L-Lysine (TrTA). N-Benzylidene-L-Lysine was supplemented at a rate to supply 40 g of Lys when cows consumed 53.0 lb dry matter/d. The control diet was formulated to be deficient of lysine. “P” refers to the probability value (p-value).

[1] = control diet deficient of lysine plus 40 g Lys from N-Benzylidene-L-Lysine, 14 days

With `NCCCC[C@H](N=Cc1ccccc1)C(=O)O` [Trt A, N-Benzylidene-L-Lysine] the ECM [1] was 81.3 lbs/d, the FCM [1] was 81.2 lbs/d and the Milk [1] was 77.3 lbs/d. The ECM/Feed (control diet plus 40 g Lys from N-Benzylidene-L-Lysine, 14 days) was 1.53, the “Fat, %” value (milk fat content, control diet plus 40 g Lys from N-Benzylidene-L-Lysine, 14 days) was 3.81% and the “Fat, lbs/d” value (milk fat yield, control diet plus 40 g Lys from N-Benzylidene-L-Lysine, 14 days) was 2.94 lbs/d. The “Protein, %” value (milk protein content, control diet plus 40 g Lys from N-Benzylidene-L-Lysine, 14 days) was 3.14%, the “Protein, lbs/d” value (milk protein yield, control diet plus 40 g Lys from N-Benzylidene-L-Lysine, 14 days) was 2.41 lbs/d and the “Lactation response versus control (conclusion in words)” value (versus lysine-deficient control diet, from Table 1 data) was “produced more milk, more protein and more fat”.
